From paper PMC4556614 (PLoS ONE, 2015)

What was measured:
OCT2 [1] = molecular target: T1, OCT2 (Homo sapiens, UniProt O15244); assay: in vitro; conditions: human; for % Inhibition of OCT2-dependent MF uptake at 200 µM (mean ± SEM) / % Inhibition of OCT2-dependent MF uptake at 20 µM (mean ± SEM): pH 7.3
OCT2 [2] = molecular target: T1, OCT2; assay: Inhibition of OCT2-mediated [3H]MPP+ uptake in HEK-OCT2 cells
[3] = test drug 20 µM, MPP+ 50 μM, 3 min, net uptake HEK-OCT2 minus HEK-VC
[4] = test drug 200 µM, MPP+ 50 μM, 3 min, net uptake HEK-OCT2 minus HEK-VC
[5] = human, pH 7.3, probe [3H]MPP+, 50 µM

T1 sequence (O15244 whole entry): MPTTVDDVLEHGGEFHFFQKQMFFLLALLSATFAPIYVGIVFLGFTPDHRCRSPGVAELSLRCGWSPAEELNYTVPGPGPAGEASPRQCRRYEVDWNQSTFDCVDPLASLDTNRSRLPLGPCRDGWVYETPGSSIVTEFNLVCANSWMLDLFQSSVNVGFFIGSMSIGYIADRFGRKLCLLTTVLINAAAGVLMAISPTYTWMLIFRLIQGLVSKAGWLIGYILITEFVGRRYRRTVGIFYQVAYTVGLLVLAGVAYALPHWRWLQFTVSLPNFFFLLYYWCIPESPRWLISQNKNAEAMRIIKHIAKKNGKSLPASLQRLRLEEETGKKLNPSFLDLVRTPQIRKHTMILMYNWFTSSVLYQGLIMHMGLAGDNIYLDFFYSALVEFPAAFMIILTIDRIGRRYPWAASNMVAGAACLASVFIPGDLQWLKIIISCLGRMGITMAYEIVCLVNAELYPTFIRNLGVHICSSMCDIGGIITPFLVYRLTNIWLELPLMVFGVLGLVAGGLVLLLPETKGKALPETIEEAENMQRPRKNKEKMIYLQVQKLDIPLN

Structure (SMILES): CCC(=O)C(CC(C)N(C)C)(c1ccccc1)c1ccccc1 (centres unmarked) [Methadone]
- % Inhibition of OCT2-dependent MF uptake at 200 µM (mean ± SEM) (OCT2 [1]): 99.3 ± 0.3
- % Inhibition of OCT2-dependent MPP+ uptake at 20 µM (mean ± SEM) (OCT2 [2]; [3]): 8.9 ± 4.4%
- % Inhibition of OCT2-dependent MPP+ uptake at 200 µM (mean ± SEM) (OCT2 [2]; [4]): 68.7 ± 3.8%

Structure (SMILES): CN(Cc1cnc2nc(N)nc(N)c2n1)c1ccc(C(=O)N[C@@H](CCC(=O)O)C(=O)O)cc1 [Methotrexate]
- % Inhibition of OCT2-dependent MF uptake at 20 µM (mean ± SEM) (OCT2 [1]): -1.1 ± 11.4
- % Inhibition of OCT2-dependent MF uptake at 200 µM (mean ± SEM) (OCT2 [1]): -5.8 ± 13.0
- % Inhibition of OCT2-dependent MPP+ uptake at 20 µM (mean ± SEM) (OCT2 [2]; [3]): -19.0 ± 7.2%
- % Inhibition of OCT2-dependent MPP+ uptake at 200 µM (mean ± SEM) (OCT2 [2]; [4]): -9.5 ± 3.0%

Structure (SMILES): COC(=O)C(c1ccccc1)C1CCCCN1 (centres unmarked) [Methylphenidate]
- % Inhibition of OCT2-dependent MF uptake at 20 µM (mean ± SEM) (OCT2 [1]): 17.9 ± 4.6
- % Inhibition of OCT2-dependent MF uptake at 200 µM (mean ± SEM) (OCT2 [1]): 79.6 ± 2.3
- % Inhibition of OCT2-dependent MPP+ uptake at 20 µM (mean ± SEM) (OCT2 [2]; human, pH 7.3): 11.5 ± 8.9
- % Inhibition of OCT2-dependent MPP+ uptake at 200 µM (mean ± SEM) (OCT2 [2]; human, pH 7.3): 31.6 ± 4.7

Structure (SMILES): CCN(CC)CCNC(=O)c1cc(Cl)c(N)cc1OC [Metoclopramide]
- % Inhibition of OCT2-dependent MF uptake at 20 µM (mean ± SEM) (OCT2 [1]): 74.7 ± 8.5
- % Inhibition of OCT2-dependent MF uptake at 200 µM (mean ± SEM) (OCT2 [1]): 93.9 ± 0.6
- % Inhibition of OCT2-dependent MPP+ uptake at 20 µM (mean ± SEM) (OCT2 [2]; [3]): 24.5 ± 2.9%
- % Inhibition of OCT2-dependent MPP+ uptake at 200 µM (mean ± SEM) (OCT2 [2]; [4]): 66.6 ± 8.4%

Structure (SMILES): COCCc1ccc(OCC(O)CNC(C)C)cc1 (centres unmarked) [Metoprolol]
- % Inhibition of OCT2-dependent MF uptake at 20 µM (mean ± SEM) (OCT2 [1]): 50.5 ± 5.9
- % Inhibition of OCT2-dependent MF uptake at 200 µM (mean ± SEM) (OCT2 [1]): 88.2 ± 1.7
- % Inhibition of OCT2-dependent MPP+ uptake at 20 µM (mean ± SEM) (OCT2 [2]; [3]): 23.2 ± 6.5%
- % Inhibition of OCT2-dependent MPP+ uptake at 200 µM (mean ± SEM) (OCT2 [2]; [4]): 27.5 ± 6.9%

Structure (SMILES): CN1CCN2c3ncccc3Cc3ccccc3C2C1 (centres unmarked) [Mirtazapine]
- % Inhibition of OCT2-dependent MF uptake at 20 µM (mean ± SEM) (OCT2 [1]): 73.3 ± 3.0
- % Inhibition of OCT2-dependent MF uptake at 200 µM (mean ± SEM) (OCT2 [1]): 90.7 ± 3.9
- % Inhibition of OCT2-dependent MPP+ uptake at 20 µM (mean ± SEM) (OCT2 [2]; [3]): -4.8 ± 4.0%
- % Inhibition of OCT2-dependent MPP+ uptake at 200 µM (mean ± SEM) (OCT2 [2]; [4]): 57.6 ± 6.1%

Structure (SMILES): O=C(NCCN1CCOCC1)c1ccc(Cl)cc1 [Moclobemide]
- % Inhibition of OCT2-dependent MF uptake at 20 µM (mean ± SEM) (OCT2 [1]): 4.3 ± 2.8
- % Inhibition of OCT2-dependent MF uptake at 200 µM (mean ± SEM) (OCT2 [1]): 48.9 ± 2.1
- % Inhibition of OCT2-dependent MPP+ uptake at 20 µM (mean ± SEM) (OCT2 [2]; [3]): -38.7 ± 8.5%
- % Inhibition of OCT2-dependent MPP+ uptake at 200 µM (mean ± SEM) (OCT2 [2]; [4]): -16.1 ± 17.7%

Structure (SMILES): CCOC(=O)[N-]c1cn(N2CCOCC2)n[o+]1 [Molsidomine]
- % Inhibition of OCT2-dependent MF uptake at 20 µM (mean ± SEM) (OCT2 [1]): 41.4 ± 3.6
- % Inhibition of OCT2-dependent MF uptake at 200 µM (mean ± SEM) (OCT2 [1]): 69.5 ± 1.7
- % Inhibition of OCT2-dependent MPP+ uptake at 20 µM (mean ± SEM) (OCT2 [2]; [3]): -1.7 ± 8.3%
- % Inhibition of OCT2-dependent MPP+ uptake at 200 µM (mean ± SEM) (OCT2 [2]; [4]): 3.8 ± 4.9%

Structure (SMILES): COc1nc(C)nc(Cl)c1N=C1NCCN1 [Moxonidine]
- inhibition at 3 min, 20 µM (OCT2 [1]; pH 7.3, probe [14C]metformin, 1000 µM, % Inhibition of OCT2-dependent MF uptake at 20 µM (mean ± SEM), test drug 20 µM, metformin 1000 μM, 3 min, net uptake HEK-OCT2 minus HEK-VC): 58.1 ± 14.5%
- inhibition at 3 min, 200 µM (OCT2 [1]; pH 7.3, probe [14C]metformin, 1000 µM, % Inhibition of OCT2-dependent MF uptake at 200 µM (mean ± SEM), test drug 200 µM, metformin 1000 μM, 3 min, net uptake HEK-OCT2 minus HEK-VC): 86.1 ± 2.9%
- inhibition at 3 min, 20 µM (OCT2 [2]; [5]): 16.3 ± 6.5%
- inhibition at 3 min, 200 µM (OCT2 [2]; [5]): 23.1 ± 7.1%

Structure (SMILES): OC(CNCC(O)C1CCc2cc(F)ccc2O1)C1CCc2cc(F)ccc2O1 (centres unmarked) [Nebivolol]
- % Inhibition of OCT2-dependent MF uptake at 20 µM (mean ± SEM) (OCT2 [1]): 61.4 ± 10.4
- % Inhibition of OCT2-dependent MF uptake at 200 µM (mean ± SEM) (OCT2 [1]): 75.2 ± 10.8
- % Inhibition of OCT2-dependent MPP+ uptake at 20 µM (mean ± SEM) (OCT2 [2]; [3]): -13.7 ± 13.3%
- % Inhibition of OCT2-dependent MPP+ uptake at 200 µM (mean ± SEM) (OCT2 [2]; [4]): 43.2 ± 3.3%

Structure (SMILES): CCOC(=O)C1=C(C)NC(C)=C(C(=O)OC)C1c1cccc([N+](=O)[O-])c1 (centres unmarked) [Nitrendipine]
- % Inhibition of OCT2-dependent MF uptake at 20 µM (mean ± SEM) (OCT2 [1]): 0.4 ± 9.8
- % Inhibition of OCT2-dependent MF uptake at 200 µM (mean ± SEM) (OCT2 [1]): 53.2 ± 3.7
- % Inhibition of OCT2-dependent MPP+ uptake at 20 µM (mean ± SEM) (OCT2 [2]; [3]): 4.0 ± 6.3%
- % Inhibition of OCT2-dependent MPP+ uptake at 200 µM (mean ± SEM) (OCT2 [2]; [4]): -2.4 ± 5.0%

Structure (SMILES): C#C[C@]1(O)CC[C@H]2[C@@H]3CCC4=CC(=O)CC[C@@H]4[C@H]3CC[C@@]21C [Norethindrone]
- % Inhibition of OCT2-dependent MF uptake at 20 µM (mean ± SEM) (OCT2 [1]): 41.0 ± 11.0
- % Inhibition of OCT2-dependent MF uptake at 200 µM (mean ± SEM) (OCT2 [1]): 87.7 ± 6.1
- % Inhibition of OCT2-dependent MPP+ uptake at 20 µM (mean ± SEM) (OCT2 [2]; [3]): -29.4 ± 6.4%
- % Inhibition of OCT2-dependent MPP+ uptake at 200 µM (mean ± SEM) (OCT2 [2]; [4]): 3.0 ± 3.3%
